Assay results as given in patent publication US5942494A, “Stimulation of gene expression and synthesis of heat shock protein 72/73 (HSP 70)” (The Trustees of Columbia University in the City of New York, priority 1996, dated 1999).
Numbered stars: 1 amine (or outer) side, 2 acyl side, 3 side chain; on linkers, the order of the positions; unused ones are H or OH. Bridge positions count the residues as written; N and C are the ends. Square brackets hold non-standard residues; d marks the D form. Peptide text beside a SMILES is read from it. I, II: the chains in the order shown. * marks the point of attachment. Actinocin(9to1) = Cc1c2oc3c(C)ccc(C(=O)[*:1])c3nc-2c(C(=O)[*:2])c(N)c1=O; Sta = CC(C)C[C@H](N)[C@@H](O)CC(=O)O; NMeV = CN[C@H](C(=O)O)C(C)C; Isovaleryl = CC(C)CC(=O)*; Cbz = O=C(OCc1ccccc1)*; Sar = CNCC(=O)O

How the values were obtained:
[1] = system: 3-hydroxy-3-methylglutaryl-coenzyme A (HMG-CoA) reductase; conditions: Inoue, et al., 1991; cited from earlier work
[2] = system: proteasomes; conditions: Rock, et al., 1994; cited from earlier work
[3] = system: apoB; conditions: Sakata, et al., 1993, unpublished data; cited from earlier work
[4] = system: calpain; conditions: Rock, et al., 1994; cited from earlier work
[5] = system: Hsp70; experiment: Hsp70 levels by denaturing immunoprecipitation of [3H]-leucine radiolabeled HepG2 cells; type: cell-based, human; conditions: for Induction of Hsp70 by protease inhibitors: HepG2, 4 hours pre-treatment, ALLN, ALLM 40 μg/ml, leupeptin, pepstatin A 50 μg/ml, E-64d 25 μg/ml, PMSF 1 mM, aprotinin 100 KIU/ml, Benz 1 mM, CIP 200 μM
Method: The HepG2 cell culture conditions were maintained as previously described (Dixon, et al., 1991). The cells were seeded into collagen-pre-coated dishes or six-well tissue culture plates and grown in complete medium containing minimum essential medium (MEM) with 0.1 mM nonessential amino acids, 1.0 mM sodium pyruvate, penicillin/streptomycin, and 10% fetal bovine serum. Cells were fed fresh complete medium every 3 days and maintained in a 5% CO2 incubator. All experiments were performed by using exponentially growing cells at 90-95% confluency. For heat shock treatment, the dishes were sealed with Parafilm and immersed in a water bath at 42° C. for indicated durations of time. Cells were incubated with ALLN alone at indicated concentrations or combined with other chemicals at 37° C. Cells were also incubated with different protease inhibitors alone at indicated concentrations or combined with other chemicals at 37° C.
(§1) HepG2 cells were preincubated for 4 hours in serum-free MEM and then radiolabeled with ^3 H-Leucine (150 μCi/ml) in a serum-free, leucine-free medium. Preincubation and labeling media each contained either 1.5% bovine serum albumin (BSA) alone, or BSA plus ALLN (40 μg/ml except as otherwise indicated), or BSA plus other protease inhibitors at concentrations indicated in the figure legends. At the indicated times, cells were removed from the 37° C. incubator and placed on ice, washed with cold phosphate-buffer saline (PBS) twice and lysed with lysis buffer containing 1% Triton X-100 (TX100), 1% deoxycholic acid (DOC) and 0.1% SDS in PBS containing proteinase inhibitors: 2 mM phenylmethylsulfonyl fluoride (PMSF); 2 μg/ml ALLN; 2 μg/ml leupeptin; and 2 μg/ml aprotinin. After a 30 min. incubation with lysis buffer at 4° C., the lysates were centrifuged at 14,000 g in a microcentrifuge for 5 min., and the supernatants were adjusted to 1% SDS concentration and boiled for 5 min. to denature the proteins. 1% TX100 was then added to dilute the lysates to a final concentration of 0.1% SDS. Cell lysates containing equal amounts of trichloroacetic acid (TCA)-insoluble radioactivity were used for immunoprecipitations by incubating with individual monoclonal antibody (1 μg/ml) for 2.5 hours at 4° C. Protein-A Sepharose 4B was added afterwards and the lysates incubated for another 1.5 hours at 4° C. to collect the immunocomplexes. After washing four times with 1×NET buffer (containing 0.5% TX100, 0.1% SDS), the immunocomplexes were mixed with sample buffer and boiled for 5 min. Following centrifugation, the supernatants were aliquoted for scintillation counting and for 3-15% gradient polyacrymide gel electrophoresis (SDS-PAGE) . The gels were later subjected to fluorography. All values are presented as the mean ± S.D. from three individual experiments except as otherwise indicated.
Denaturing immunoprecipitation was chosen because Hsp70 is a major cytosolic chaperone protein and it is co-immunoprecipitated with a number of other proteins under non-denaturingconditions (Beckmann, et al., 1990; Zhou, et al., 1995).

[6] = biological target: cathepsin B (Homo sapiens, UniProt P07858); conditions: Rock, et al., 1994; cited from earlier work
[7] = system: HepG2 cells; experiment: Total incorporation of radiolabel (TCA cpm) as indicator of cell toxicity, HepG2; type: cell-based, human; conditions: HepG2, 4 hours; MG132 10 or 30 μM; lactacystin 10 μM
Method: as §1

[8] = system: hsp70 (hsp72) mRNA; experiment: Northern blot of hsp70 (hsp72) mRNA in HepG2 cells; type: cell-based, human; conditions: with ALLN 40 μg/ml, 4 hours; actinomycin D 10 μg/ml; cycloheximide 50 μg/ml
Method: HepG2 cells were treated with serum-free MEM containing either 1.5% BSA alone (Control, lane1), BSA plus 40 μg/ml of ALLN (ALLN, lane2), ALLN and 10 μg/ml of actinomycin D (A+AD, lane3), or ALLN and 50 μg/ml of cycloheximide (A+CXM, lane4). After 4 hours treatment at 37° C., cells were harvested. (B). HepG2 cells were treated with 40 μg/ml of ALLN in the serum-free MEM for up to 0 hour (lane1), 1 hour (lane2), 2 hours (lane3), and 3 hours (lane4) and then harvested without recovery. Or after treatment for 3 hours in the presence of ALLN as above, the ALLN containing medium were removed, cells were washed and fed fresh medium containing only BSA for recovery of up to 1 hour (lane5), 3 hours (lane6), 5 hours (lane7) or 7 hours (lane8). The total RNA was prepared, and equal amounts of the samples were loaded and run on a 1% formaldehyde-agarose gel, blotted onto a nylon membrane, and subsequently hybridized with specific synthetic oligonucleotide probes for hsp70 mRNA as described under Experimental Details. The position of 28S and 18S rRNA are shown for reference.
Total RNA was prepared using the procedure of Chomczynski and Sacchi (Chomczynski, et al., 1987) and a commercially prepared reagent, TRISOLV™ (Biotecx Laboratories Inc., Tex.) . Equal amounts of tRNA samples (10 μg) were size-fractionated on a 1% agarose-formaldehyde gel according to the methods described (Maniatis, et al., 1982) and transferred to a piece of QIAGEN plus nylon membrane. To determine loading and transfer efficiency, RNA was stained with ethidium bromide before and after transfer. The membrane was baked for 30 min. at 80° C. in vacuo (a vacuum) followed by UV cross-linking. It was then incubated for 4 hours at 65° C. in a prehybridization mixture containing 10% dextran sulfate, 1% SDS, 1M sodium chloride, 50 mM Tris-HCl (pH 7.5) and 100 μg/ml denatured salmon sperm DNA. Hybridization was carried out for 18 hours at 65° C. in the same buffer with a ^32 P-labeled (1×10^6 cpm/ml) 40-mer oligonucleotide probe to the untranslated 5' region of a human hsp70 gene (Oncogene Science). […] The membrane was then washed four times with 2×SSC, 0.1% SDS at room temperature, one time at 65° C. for 30 min., and one time at room temperature again for 5 min., and finally rinsed with 2×SSC at room temperature. This membrane was air dried and exposed to X-ray film at -80° C. for 48 hours.
Total RNA was isolated from HepG2 cells which had been incubated for 4 hours at 37° C. (FIG. 5A) with MEM containing BSA alone (Control, lane1), BSA plus 40 μg/ml of ALLN (ALLN, lane2), BSA plus ALLN and […] of actinomycin D (A+AD, lane3) or BSA plus ALLN and 50 μg/ml of cycloheximide (A+CXM, lane4). A radioprobe containing a unique sequence specific for the 5' untranslated region of hsp72 (inducible form) (Freeman et al., 1993) was used for Northern blot analysis.

[9] = system: HSF1; experiment: EGS cross-linking and Western blot of HSF1 oligomeric forms in HepG2 cells; type: cell-based, human; conditions: cycloheximide 50 μg/ml with ALLN 40 μg/ml, 2 hours
Method: FIGS. 6A-6B: ALLN affects the trimerization of HSF. HepG2 cells were treated with serum-free MEM containing 1.5% BSA for 2 hours at 37° C. without any additions (lane1), at 37 ° C. but containing 40μg/ml of ALLN in the medium (lane2), at 37° C. in a medium containing both ALLN and 50 μg/ml of cycloheximide (lane3) , at 42° C. alone (lane4), or at 42° C. plus cycloheximide in the medium (lane5). Cell lysates were prepared as described under Experimental Details. The lysates were either directly run on the SDS-PAGE (A) to show the steady-state protein levels of HSF1 or subjected to cross-linking with ethylene glycol bis sucrinimidylsuccinate (EGS) before running the gel (B) to show the oligomeric forms of HSF1. The proteins were then transfered to a nitrocellulose membrane and immunoblotted with anti-human HSF1 antibody. Arrows on the right side indicates the monomeric, dimeric or trimeric forms of HSF1, respectively. This experiment was repeated three times with identical results.
For measurement of the steady-state HSF1 protein levels, whole cell extracts were prepared by lysing the cells directly with 2×SDS-sample buffer (Maniatis, et al., 1982). For chemical cross-linking experiments, whole-cell extracts were prepared as described (Mosser, et al., 1988). Briefly, the cold PBS-washed cell pellets were quickly and repeatedly frozen in liquid nitrogen. […]

Compound: CSCC[C@@H](C=O)NC(=O)[C@H](CC(C)C)NC(=O)[C@H](CC(C)C)NC(C)=O [ALLM, N-acetyl-leucyl-leucyl-methioninal] (Ac-Leu-Leu-Met-aldehyde)
- Protection of HMG-CoA reductase [1]: less effectively
- Inhibition of proteasomes [2]: potent inhibitors
- Protection of apoB [3]: less effectively
- Activity against calpain [4]: significant activities
- Ability to induce Hsp70 levels compared with ALLN ([5]; HepG2, 40 μg/ml, 4 hours): less ability to induce Hsp70 levels
- Induction of Hsp70 by protease inhibitors [5]: significantly induce
- Activity against cathepsin B [6]: significant activities

Compound: CC(=O)N[C@@H](CC(C)C)C(=O)N[C@@H](CC(C)C)C(=O)N[C@H](C=O)CCCNC(=N)N [Leupeptin, leupeptin]
- Induction of Hsp70 by protease inhibitors [5]: ineffective

Compound: CC(C)C[C@@H](C=O)NC(=O)[C@H](CC(C)C)NC(=O)[C@H](CC(C)C)NC(=O)OCc1ccccc1 [MG132, Cbz-leucyl-leucyl-leucinal] (Cbz-Leu-Leu-Leu-aldehyde)
- Induction of Hsp70 levels by proteasome inhibitors ([5]; HepG2, 4 hours, MG132 10 μM or 30 μM, lactacystin 10 μM, 30 min radiolabeling): induced Hsp70 levels dramatically
- Toxicity to the cells (TCA-precipitable radioactivities) [7]: without obvious toxicity

Compound: O=S(=O)(F)Cc1ccccc1 [PMSF, phenylmethylsulfonyl fluoride]
- Induction of Hsp70 by protease inhibitors [5]: No induction

Compound: Cc1c2oc3c(C)ccc(C(=O)N[C@@H]4C(=O)N[C@H](C(C)C)C(=O)N5CCC[C@H]5C(=O)N(C)CC(=O)N(C)[C@@H](C(C)C)C(=O)O[C@@H]4C)c3nc-2c(C(=O)N[C@@H]2C(=O)N[C@H](C(C)C)C(=O)N3CCC[C@H]3C(=O)N(C)CC(=O)N(C)[C@@H](C(C)C)C(=O)O[C@@H]2C)c(N)c1=O [actinomycin D] (I: T[dV]P[Sar][NMeV] / II: T[dV]P[Sar][NMeV]; ester I:1-I:C, II:1-II:C; linker I:N-II:N via Actinocin(9to1))
- Effect of co-treatment on ALLN-induced hsp70 (hsp72) mRNA [8]: abolished the effects of ALLN

Compound: C[C@@H]1C[C@@H]([C@H](O)CC2CC(=O)NC(=O)C2)C(=O)[C@@H](C)C1 [cycloheximide]
- Effect of co-treatment on ALLN-induced HSF1 trimerization [9]: abolished the effect of ALLN on HSF1 trimerization
- Effect of co-treatment on ALLN-induced hsp70 (hsp72) mRNA [8]: abolished

Compound: CC(C)CC(=O)N[C@H](C(=O)N[C@H](C(=O)N[C@@H](CC(C)C)[C@@H](O)CC(=O)N[C@@H](C)C(=O)N[C@@H](CC(C)C)[C@@H](O)CC(=O)O)C(C)C)C(C)C [pepstatin] (Isovaleryl-VV[Sta]A[Sta]-OH)
- Induction of Hsp70 by protease inhibitors [5]: No induction

Compound: aprotinin
- Induction of Hsp70 by protease inhibitors [5]: No induction
